Literature values, collected in US6552040B1, “Use of nitroxides in wound healing and in the prevention of photodamage” (priority 1999, dated 2003).

Key:
[1] = tested on: UVB radiation-induced mouse skin damage; conditions: mice, topical solution prior to UVB exposure, versus untreated mice
[2] = in vitro and in vivo
[3] = tested on: radiation-induced alopecia; conditions: field of heavily irradiated skin

Compound	protection against UVB radiation skin damage [1]	other results
Cc1cc(C(C)(C)C)c(O)c(C(C)(C)C)c1 [BHT]	no significant protection	–
CC1(C)CC(O)CC(C)(C)N1[O] [Tempol, 4-hydroxy-2,2,6,6-tetramethyl-piperidinyloxy, free radical]	–	protection against ionizing radiation [2]: both in vitro and in vivo protection; protection of mammalian cells from hydrogen peroxide mediated cytotoxicity (mammalian cells): protecting mammalian cells; protection of mammalian cells from superoxide generated from hypoxanthine/xanthine oxidase (mammalian cells; superoxide dismutase mimic): protecting mammalian cells; protection against radiation-induced alopecia [3]: speeding the recovery of hair growth
Cc1c(C)c2c(c(C)c1O)CCC(C)(C(=O)O)O2 (stereo not shown) [Trolox]	significantly less damage	–
Cc1c(C)c2c(c(C)c1O)CC[C@@](C)(CCC[C@H](C)CCC[C@H](C)CCCC(C)C)O2 [alphatocopherol]	significantly less damage	–
O=C1O[C@H]([C@@H](O)CO)C(O)=C1O [ascorbic acid]	significantly less damage	–
CC1=C(/C=C/C(C)=C/C=C/C(C)=C/C=C/C=C(C)/C=C/C=C(C)/C=C/C2=C(C)CCCC2(C)C)C(C)(C)CCC1 [beta-carotene]	no significant protection	–
C=CC(O)C(O)C=C (stereo not shown) [divinylglycol]	no significant protection	–
N[C@@H](CCC(=O)N[C@@H](CS)C(=O)NCC(=O)O)C(=O)O [glutathione]	no significant protection	–
N[C@@H](Cc1c[nH]cn1)C(=O)O [histidine]	no significant protection	–
OC[C@@H](O)[C@@H](O)[C@H](O)[C@H](O)CO [mannitol]	no significant protection	–
CC(C)(CO)[C@@H](O)C(=O)NCCC(=O)NCCS [pantetheine]	no significant protection	–
CCCOC(=O)c1cc(O)c(O)c(O)c1 [propyl galate]	significantly less damage	–
NC(N)=O [urea]	no significant protection	–
